Data published in patent publication US8258114B2, “Modulation of glucose-6-phosphatase translocase expression” (Isis Pharmaceuticals, Inc., priority 2004, dated 2012).
Oligonucleotides are written 5' to 3', each unit as a sugar letter and its base; * is a phosphorothioate linkage, no mark a phosphodiester; rarer units and linkages stand in square brackets, end groups in braces. Plain capitals give the bases only. e = 2'-O-(2-methoxyethyl) (MOE); [5mC] = 5-methylcytosine; d = 2'-deoxy (DNA)

Tested on: mouse glucose-6-phosphatase translocase mRNA
Test: Antisense inhibition of mouse glucose-6-phosphatase translocase mRNA in primary mouse hepatocytes, 150 nM, LIPOFECTIN (Table 22)
Type: cell-based
Conditions: real-time PCR
Procedure: Primary mouse hepatocytes were prepared from CD-1 mice purchased from Charles River Labs. Primary mouse hepatocytes were routinely cultured in Hepatocyte Attachment Media supplemented with 10% fetal bovine serum (Invitrogen Life Technologies, Carlsbad, Calif.), 250 nM dexamethasone, and 10 nM bovine insulin (Sigma-Aldrich, St. Louis, Mo.). Cells were seeded into 96-well plates (Falcon-Primaria #353872, BD Biosciences, Bedford, Mass.) at a density of approximately 4,000-6,000 cells/well for use in oligomeric compound transfection experiments.
When cells reached 65-75% confluency, they were treated with oligonucleotide. Oligonucleotide was mixed with LIPOFECTIN™ Invitrogen Life Technologies, Carlsbad, Calif.) in Opti-MEM™-1 reduced serum medium (Invitrogen Life Technologies, Carlsbad, Calif.) to achieve the desired concentration of oligonucleotide and a LIPOFECTIN™ concentration of 2.5 or 3 μg/mL per 100 nM oligonucleotide. This transfection mixture was incubated at room temperature for approximately 0.5 hours. For cells grown in 96-well plates, wells were washed once with 100 μL OPTI-MEM™-1 and then treated with 130 μL of the transfection mixture. Cells grown in 24-well plates or other standard tissue culture plates are treated similarly, using appropriate volumes of medium and oligonucleotide. Cells are treated and data are obtained in duplicate or triplicate. After approximately 4-7 hours of treatment at 37° C., the medium containing the transfection mixture was replaced with fresh culture medium. Cells were harvested 16-24 hours after oligonucleotide treatment.
Quantitation of glucose 6-phosphatase translocase mRNA levels was accomplished by real-time quantitative PCR using the ABI PRISM™ 7600, 7700, or 7900 Sequence Detection System (PE-Applied Biosystems, Foster City, Calif.) according to manufacturer's instructions.
Prior to quantitative PCR analysis, primer-probe sets specific to the target gene being measured were evaluated for their ability to be “multiplexed” with a GAPDH amplification reaction. After isolation the RNA is subjected to sequential reverse transcriptase (RT) reaction and real-time PCR, both of which are performed in the same well. RT and PCR reagents were obtained from Invitrogen Life Technologies (Carlsbad, Calif.). […] The RT reaction was carried out by incubation for 30 minutes at 48° C. Following a 10 minute incubation at 95° C. to activate the PLATINUM® Taq, 40 cycles of a two-step PCR protocol were carried out: 95° C. for 15 seconds (denaturation) followed by 60° C. for 1.5 minutes (annealing/extension).
Gene target quantities obtained by RT, real-time PCR were normalized using either the expression level of GAPDH, a gene whose expression is constant, or by quantifying total RNA using RiboGreen™ (Molecular Probes, Inc. Eugene, Oreg.). GAPDH expression was quantified by RT, real-time PCR, by being run simultaneously with the target, multiplexing, or separately. Total RNA was quantified using RiboGreen™ RNA quantification reagent (Molecular Probes, Inc. Eugene, Oreg.).
A series of oligomeric compounds was designed to target different regions of mouse glucose-6-phosphatase translocase, using published sequences cited in Table 1. All compounds in Table 22 are chimeric oligonucleotides (“gapmers”) 20 nucleotides in length, composed of a central “gap” region consisting of 10 2′-deoxynucleotides, which is flanked on both sides (5′ and 3′) by five-nucleotide “wings”. The wings are composed of 2′-O-(2-methoxyethyl) nucleotides, also known as 2′-MOE nucleotides. The internucleoside (backbone) linkages are phosphorothioate throughout the oligonucleotide. All cytidine residues are 5-methylcytidines. The compounds were analyzed for their effect on gene target mRNA levels by quantitative real-time PCR as described in other examples herein, using the following primer-probe set designed to hybridize to mouse glucose-6-phosphatase translocase: • forward primer: […]

Row | Substance | % Inhib of mouse glucose-6-phosphatase translocase mRNA levels
1 | 145647 (antisense e[5mC]*eT*e[5mC]*eT*eT*dG*dA*d[5mC]*dT*dG*d[5mC]*dT*d[5mC]*d[5mC]*dT*eG*e[5mC]*eT*eT*eG) [compound 145647] | 52%
2 | 145648 (antisense e[5mC]*eT*eT*e[5mC]*eT*dG*dA*d[5mC]*d[5mC]*dA*d[5mC]*dA*dG*dA*d[5mC]*eT*e[5mC]*eT*eT*eG) [compound 145648] | 26%
3 | 145649 (antisense eG*e[5mC]*e[5mC]*e[5mC]*eA*d[5mC]*dT*d[5mC]*d[5mC]*dA*dG*dT*dA*d[5mC]*dT*eT*e[5mC]*eT*eG*eA) [compound 145649] | 61%
4 | 145650 (antisense eA*eA*eG*e[5mC]*eT*dG*dG*d[5mC]*d[5mC]*d[5mC]*dT*dG*d[5mC]*dT*dG*eG*e[5mC]*e[5mC]*e[5mC]*eA) [compound 145650] | 54%
5 | 145651 (antisense eG*eT*eA*eG*eA*dA*dA*dA*dA*dG*d[5mC]*dT*dG*dG*d[5mC]*e[5mC]*e[5mC]*eT*eG*e[5mC]) [compound 145651] | 31%
6 | 145653 (antisense eT*eT*eG*eG*eG*d[5mC]*dT*dG*d[5mC]*d[5mC]*dA*dT*dG*dG*dT*eA*eG*eA*eA*eA) [compound 145653] | 42%
7 | 145654 (antisense eA*eG*eT*eG*e[5mC]*dG*dA*dT*dA*dG*dT*dA*dG*d[5mC]*d[5mC]*eG*eT*eA*eG*e[5mC]) [compound 145654] | 47%
8 | 145655 (antisense eA*eA*e[5mC]*eA*eT*dG*dG*d[5mC]*d[5mC]*dG*d[5mC]*dA*dA*dA*dT*eA*eT*eG*eA*e[5mC]) [compound 145655] | 29%
9 | 145656 (antisense eT*eA*e[5mC]*eA*eG*dG*d[5mC]*dT*dG*dT*dA*dG*d[5mC]*d[5mC]*dT*e[5mC]*e[5mC]*eA*eA*eA) [compound 145656] | 47%
10 | 145658 (antisense eT*eG*eG*eT*e[5mC]*dT*dG*dA*d[5mC]*dA*dG*dA*dA*d[5mC]*d[5mC]*e[5mC]*e[5mC]*eG*e[5mC]*eT) [compound 145658] | 36%
11 | 145659 (antisense e[5mC]*eG*e[5mC]*eT*e[5mC]*dA*dT*d[5mC]*dT*dG*dG*dT*d[5mC]*dT*dG*eA*e[5mC]*eA*eG*eA) [compound 145659] | 15%
12 | 145660 (antisense eT*eG*eT*eG*eG*dA*dG*d[5mC]*dT*d[5mC]*d[5mC]*dA*dT*dG*dA*eG*eA*eA*eG*eA) [compound 145660] | 40%
13 | 145661 (antisense eA*e[5mC]*e[5mC]*eA*eA*dG*dG*dA*dG*d[5mC]*dA*dG*d[5mC]*dA*dA*eA*eG*eG*e[5mC]*eT) [compound 145661] | 25%
14 | 145663 (antisense eT*eT*eG*eA*e[5mC]*dA*dA*d[5mC]*dA*d[5mC]*dA*dG*d[5mC]*d[5mC]*d[5mC]*eA*e[5mC]*e[5mC]*eA*eA) [compound 145663] | 48%
15 | 145665 (antisense e[5mC]*e[5mC]*eA*eG*e[5mC]*d[5mC]*dA*dG*dG*dT*dT*d[5mC]*dA*dT*dG*e[5mC]*eT*eG*eG*eT) [compound 145665] | 22%
16 | 145666 (antisense eA*eA*eG*eA*eT*dA*dG*dG*dT*d[5mC]*d[5mC]*d[5mC]*dA*dA*dA*e[5mC]*eT*eT*e[5mC]*e[5mC]) [compound 145666] | 28%

Row | Substance | % Inhib of mouse glucose-6-phosphatase translocase mRNA levels
17 | 145669 (antisense e[5mC]*eA*e[5mC]*eA*eG*dT*dG*d[5mC]*d[5mC]*d[5mC]*d[5mC]*dA*dG*dA*d[5mC]*eA*eG*eG*eG*e[5mC]) [compound 145669] | 9%
18 | 145672 (antisense eT*eG*eT*eG*eG*dA*dT*dG*dA*dG*d[5mC]*dA*dG*d[5mC]*dA*eG*eA*e[5mC]*eA*eG) [compound 145672] | 8%
19 | 145674 (antisense e[5mC]*eA*eG*e[5mC]*eA*dG*dG*dT*dT*d[5mC]*dA*dT*dT*dG*dT*eG*eG*eA*eT*eG) [compound 145674] | 43%
20 | 145675 (antisense eA*eA*e[5mC]*eA*eT*d[5mC]*dA*dG*d[5mC]*dA*dG*dG*dT*dT*d[5mC]*eA*eT*eT*eG*eT) [compound 145675] | 23%
21 | 145676 (antisense GAGTCCAACATCAGCAGGTTCA; 2'-MOE gapmer, further chemistry not given here) [compound 145676] | 51%
22 | 145677 (antisense e[5mC]*eT*eT*e[5mC]*eT*dT*dG*d[5mC]*d[5mC]*d[5mC]*dT*d[5mC]*dA*dG*dA*eG*eG*eG*e[5mC]*eA) [compound 145677] | 9%
23 | 145678 (antisense eG*eA*eG*e[5mC]*e[5mC]*d[5mC]*dT*dT*d[5mC]*dT*dT*dG*d[5mC]*d[5mC]*d[5mC]*eT*e[5mC]*eA*eG*eA) [compound 145678] | 60%
24 | 145679 (antisense eT*e[5mC]*eA*eA*eG*dG*dA*dG*d[5mC]*d[5mC]*d[5mC]*dT*dT*d[5mC]*dT*eT*eG*e[5mC]*e[5mC]*e[5mC]) [compound 145679] | 17%
25 | 145680 (antisense e[5mC]*eT*e[5mC]*e[5mC]*eT*dT*d[5mC]*dA*dA*dG*dG*dA*dG*d[5mC]*d[5mC]*e[5mC]*eT*eT*e[5mC]*eT) [compound 145680] | 0%
26 | 145681 (antisense e[5mC]*eT*e[5mC]*eT*e[5mC]*d[5mC]*dT*d[5mC]*d[5mC]*dT*dT*d[5mC]*dA*dA*dG*eG*eA*eG*e[5mC]*e[5mC]) [compound 145681] | 36%
27 | 145682 (antisense eG*eG*eG*eT*eG*d[5mC]*dT*d[5mC]*dT*d[5mC]*d[5mC]*dT*d[5mC]*d[5mC]*dT*eT*e[5mC]*eA*eA*eG) [compound 145682] | 31%
28 | 145683 (antisense e[5mC]*eA*eG*e[5mC]*eT*d[5mC]*d[5mC]*dT*dG*dT*dA*dG*dG*dG*dT*eG*e[5mC]*eT*e[5mC]*eT) [compound 145683] | 0%
29 | 145684 (antisense eT*e[5mC]*eT*eT*eT*dA*d[5mC]*dT*d[5mC]*d[5mC]*dG*dA*dA*dG*dA*e[5mC]*e[5mC]*eA*e[5mC]*eA) [compound 145684] | 43%
30 | 145687 (antisense e[5mC]*eT*e[5mC]*e[5mC]*eT*dG*dG*dA*dT*dA*dA*dG*dG*dA*dA*eG*eA*eA*e[5mC]*eT) [compound 145687] | 12%
31 | 145688 (antisense eA*e[5mC]*eT*eG*e[5mC]*d[5mC]*d[5mC]*dT*d[5mC]*dT*d[5mC]*dT*d[5mC]*d[5mC]*dT*eG*eG*eA*eT*eA) [compound 145688] | 25%
32 | 145689 (antisense e[5mC]*eA*eA*eG*eG*dG*d[5mC]*dG*dG*dA*d[5mC]*dT*dG*d[5mC]*d[5mC]*e[5mC]*eT*e[5mC]*eT*e[5mC]) [compound 145689] | 34%
